Reference: ChEMBL document CHEMBL4715829, “Heterodimeric Rifampicin-Tobramycin conjugates break intrinsic resistance of Pseudomonas aeruginosa to doxycycline and chloramphenicol in vitro and in a Galleria mellonella in vivo model” (Eur J Med Chem, 2019)

Key:
Pseudomonas aeruginosa [1] = experiment: Antibacterial activity against Pseudomonas aeruginosa 114228 assessed as fractional inhibitory concentration index incubated for 18 hrs in presence of minocycline by broth microdilution assay; assay type: functional
Pseudomonas aeruginosa [2] = experiment: Antibacterial activity against Pseudomonas aeruginosa 260-97103 assessed as fractional inhibitory concentration incubated for 18 hrs in presence of tigecycline by broth microdilution assay; assay type: functional
Pseudomonas aeruginosa [3] = experiment: Antibacterial activity against Pseudomonas aeruginosa 260-97103 assessed as potentiation of chloramphenicol-induced antibacterial activity by measuring chloramphenicol MIC at 9.8 uM incubated for 18 hrs in presence of chloramphenicol by broth microdilution assay (reference value: 128 ug/ml); assay type: functional
Pseudomonas aeruginosa [4] = experiment: Potentiation of chloramphenicol-induced antibacterial activity against Pseudomonas aeruginosa 262-101856 assessed as fold change in chloramphenicol MIC at 9.8 uM incubated for 18 hrs in presence of chloramphenicol by broth microdilution assay relative to control; assay type: functional
Pseudomonas aeruginosa [5] = experiment: Antibacterial activity against Pseudomonas aeruginosa 101243 assessed as fractional inhibitory concentration incubated for 18 hrs in presence of rifampicin by broth microdilution assay; assay type: functional
Pseudomonas aeruginosa [6] = experiment: Antibacterial activity against Pseudomonas aeruginosa 101885 assessed as fractional inhibitory concentration index incubated for 18 hrs in presence of minocycline by broth microdilution assay; assay type: functional
Pseudomonas aeruginosa [7] = experiment: Potentiation of chloramphenicol-induced antibacterial activity against wild type Pseudomonas aeruginosa PAO1 assessed as fold change in chloramphenicol MIC at <=9.8 uM incubated for 18 hrs in presence of chloramphenicol by broth microdilution assay; assay type: functional; conditions: dose microM <=9.8
HEK293 = experiment: Cytotoxicity against human HEK293 cells assessed as cell viability at 50 uM incubated for 48 hrs in presence of chloramphenicol by prestoblue assay; assay type: cell-based; conditions: hek293, 48 h
Pseudomonas aeruginosa [8] = experiment: Antibacterial activity against Pseudomonas aeruginosa 262-101856 assessed as fractional inhibitory concentration incubated for 18 hrs in presence of rifampicin by broth microdilution assay; assay type: functional
Pseudomonas aeruginosa [9] = experiment: Antibacterial activity against Pseudomonas aeruginosa 101243 assessed as fractional inhibitory concentration index incubated for 18 hrs in presence of rifampicin by broth microdilution assay; assay type: functional
Pseudomonas aeruginosa [10] = experiment: Antibacterial activity against Pseudomonas aeruginosa 260-97103 infected in Galleria mellonella larvae assessed as survival of larvae at 75 mg/kg treated at 3 hrs post-infection in presence of chloramphenicol and measured after 18 hrs relative to control; assay type: functional
Pseudomonas aeruginosa [11] = experiment: Antibacterial activity against Pseudomonas aeruginosa 100036 assessed as potentiation of chloramphenicol-induced antibacterial activity by measuring chloramphenicol MIC at 9.8 uM incubated for 18 hrs in presence of chloramphenicol by broth microdilution assay (reference value: 1024 ug/ml); assay type: functional
Pseudomonas aeruginosa [12] = experiment: Antibacterial activity against Pseudomonas aeruginosa 259-96918 assessed as fractional inhibitory concentration incubated for 18 hrs in presence of rifampicin by broth microdilution assay; assay type: functional
Pseudomonas aeruginosa [13] = experiment: Antibacterial activity against Pseudomonas aeruginosa 114228 assessed as fractional inhibitory concentration incubated for 18 hrs in presence of tigecycline by broth microdilution assay; assay type: functional
Pseudomonas aeruginosa [14] = experiment: Antibacterial activity against Pseudomonas aeruginosa 101885 assessed as fractional inhibitory concentration incubated for 18 hrs in presence of rifampicin by broth microdilution assay; assay type: functional
Pseudomonas aeruginosa [15] = experiment: Antibacterial activity against Pseudomonas aeruginosa 114228 assessed as fractional inhibitory concentration index incubated for 18 hrs in presence of tigecycline by broth microdilution assay; assay type: functional
Pseudomonas aeruginosa [16] = experiment: Potentiation of chloramphenicol-induced antibacterial activity against Pseudomonas aeruginosa 101243 assessed as fold change in chloramphenicol MIC at 9.8 uM incubated for 18 hrs in presence of chloramphenicol by broth microdilution assay relative to control; assay type: functional
Pseudomonas aeruginosa [17] = experiment: Antibacterial activity against Pseudomonas aeruginosa 100036 assessed as fractional inhibitory concentration index incubated for 18 hrs in presence of minocycline by broth microdilution assay; assay type: functional
Pseudomonas aeruginosa [18] = experiment: Antibacterial activity against Pseudomonas aeruginosa 264-101354 assessed as fractional inhibitory concentration incubated for 18 hrs in presence of rifampicin by broth microdilution assay; assay type: functional
Pseudomonas aeruginosa [19] = experiment: Antibacterial activity against Pseudomonas aeruginosa 264-101354 assessed as reduction in bacterial growth by measuring chloramphenicol MIC at 8 ug/ml incubated for 18 hrs in presence of chloramphenicol by broth microdilution assay (reference value: 4096 ug/ml); assay type: functional; conditions: dose 8 µg/ml
Pseudomonas aeruginosa [20] = experiment: Antibacterial activity against Pseudomonas aeruginosa 264-101354 assessed as reduction in bacterial growth by measuring doxycycline MIC at 8 ug/ml incubated for 18 hrs in presence of doxycycline by broth microdilution assay (reference value: 64 ug/ml); assay type: functional; conditions: dose 8 µg/ml
Pseudomonas aeruginosa [21] = experiment: Antibacterial activity against Pseudomonas aeruginosa 260-97103 assessed as reduction in bacterial growth by measuring chloramphenicol MIC at 8 ug/ml incubated for 18 hrs in presence of chloramphenicol by broth microdilution assay (reference value: 128 ug/ml); assay type: functional; conditions: dose 8 µg/ml
Pseudomonas aeruginosa [22] = experiment: Antibacterial activity against Pseudomonas aeruginosa 114228 assessed as potentiation of doxycycline-induced antibacterial activity by measuring doxycycline MIC at 7.6 uM incubated for 18 hrs in presence of doxycycline by broth microdilution assay (reference value: 32 ug/ml); assay type: functional
Pseudomonas aeruginosa [23] = experiment: Potentiation of chloramphenicol-induced antibacterial activity against Pseudomonas aeruginosa 259-96918 assessed as fold change in chloramphenicol MIC at 7.6 uM incubated for 18 hrs in presence of chloramphenicol by broth microdilution assay relative to control; assay type: functional
Pseudomonas aeruginosa [24] = experiment: Antibacterial activity against Pseudomonas aeruginosa 264-101354 assessed as potentiation of chloramphenicol-induced antibacterial activity by measuring chloramphenicol MIC at 7.6 uM incubated for 18 hrs in presence of chloramphenicol by broth microdilution assay (reference value: 4096 ug/ml); assay type: functional
Pseudomonas aeruginosa [25] = experiment: Antibacterial activity against Pseudomonas aeruginosa 259-96918 assessed as potentiation of doxycycline-induced antibacterial activity by measuring doxycycline MIC at 7.6 uM incubated for 18 hrs in presence of doxycycline by broth microdilution assay (reference value: 32 ug/ml); assay type: functional
Pseudomonas aeruginosa [26] = experiment: Antibacterial activity against Pseudomonas aeruginosa 259-96918 assessed as potentiation of chloramphenicol-induced antibacterial activity by measuring chloramphenicol MIC at 7.6 uM incubated for 18 hrs in presence of chloramphenicol by broth microdilution assay (reference value: 1024 ug/ml); assay type: functional
Pseudomonas aeruginosa [27] = experiment: Potentiation of chloramphenicol-induced antibacterial activity against Pseudomonas aeruginosa 262-101856 assessed as fold change in chloramphenicol MIC at 7.6 uM incubated for 18 hrs in presence of chloramphenicol by broth microdilution assay relative to control; assay type: functional
Pseudomonas aeruginosa [28] = experiment: Antibacterial activity against Pseudomonas aeruginosa 91433 assessed as potentiation of chloramphenicol-induced antibacterial activity by measuring chloramphenicol MIC at 7.6 uM incubated for 18 hrs in presence of chloramphenicol by broth microdilution assay (reference value: 8 ug/ml); assay type: functional
Pseudomonas aeruginosa [29] = experiment: Antibacterial activity against Pseudomonas aeruginosa 264-101354 assessed as reduction in bacterial growth by measuring chloramphenicol MIC at 4 ug/ml incubated for 18 hrs in presence of chloramphenicol by broth microdilution assay (reference value: 4096 ug/ml); assay type: functional; conditions: dose 4 µg/ml
Pseudomonas aeruginosa [30] = experiment: Antibacterial activity against wild type Pseudomonas aeruginosa PAO1 assessed as reduction in bacterial growth by measuring chloramphenicol MIC at 8 ug/ml incubated for 18 hrs in presence of chloramphenicol by broth microdilution assay (reference value: 32 ug/ml); assay type: functional; conditions: dose 8 µg/ml

Q: For `CO[C@H]1/C=C/O[C@@]2(C)Oc3c(C)c(O)c4c(O)c(c(/C=N/N5CCN(Cc6cn(CCCCCCO[C@@H]7[C@@H](O[C@H]8O[C@H](CO)[C@@H](O)[C@H](N)[C@H]8O)[C@H](N)C[C@H](N)[C@H]7O[C@H]7O[C@H](CN)[C@@H](O)C[C@H]7N)nn6)CC5)c(O)c4c3C2=O)NC(=O)/C(C)=C\C=C\[C@H](C)[C@H](O)[C@@H](C)[C@@H](O)[C@@H](C)[C@H](OC(C)=O)[C@@H]1C.Cl.Cl.Cl.Cl.Cl`, which “fractional inhibitory concentration index (FICI)” value (Pseudomonas aeruginosa [1]) is on record?
A: Its value is <0.28.

Q: What about the FIC (Pseudomonas aeruginosa [2]) of the same molecule?
A: The FIC was <0.125.

Q: What about the MIC (Pseudomonas aeruginosa [3]) of the same molecule?
A: The MIC was 2 µg/mL.

Q: What about the “fold change (FC)” value (Pseudomonas aeruginosa [4]) of the same molecule?
A: Its value is 4.

Q: What about the FIC (Pseudomonas aeruginosa [5]) of the same molecule?
A: Its FIC is 0.063.

Q: What about the “fractional inhibitory concentration index (FICI)” value (Pseudomonas aeruginosa [6]) of the same molecule?
A: Its value is 0.13.

Q: And the “fold change (FC)” value (Pseudomonas aeruginosa [7])?
A: Its value is 32.

Q: What about the Activity (HEK293) of the same molecule?
A: The Activity was “Non-Toxic”.

Q: And the FIC (Pseudomonas aeruginosa [8])?
A: Its FIC is <0.008.

Q: What about the “fractional inhibitory concentration index (FICI)” value (Pseudomonas aeruginosa [9]) of the same molecule?
A: The value was 0.56.

Q: And the survival at 75 mg/kg (Pseudomonas aeruginosa [10])?
A: The survival at 75 mg/kg was 55%.

Q: What about the MIC (Pseudomonas aeruginosa [11]) of the same molecule?
A: The MIC was 4 µg/mL.

Q: And the FIC (Pseudomonas aeruginosa [12])?
A: The FIC was <0.125.

Q: What about the FIC (Pseudomonas aeruginosa [13]) of the same molecule?
A: The FIC was <0.031.

Q: What about the FIC (Pseudomonas aeruginosa [14]) of the same molecule?
A: Its FIC is 0.063.

Q: And the “fractional inhibitory concentration index (FICI)” value (Pseudomonas aeruginosa [15])?
A: Its value is <0.53.

Q: And the “fold change (FC)” value (Pseudomonas aeruginosa [16])?
A: The value was 4.

Q: And the “fractional inhibitory concentration index (FICI)” value (Pseudomonas aeruginosa [17])?
A: The value was 0.13.

Q: And the FIC (Pseudomonas aeruginosa [18])?
A: Its FIC is 0.016.

Q: Which results are given for `NC[C@H]1O[C@H](O[C@H]2[C@H](O)[C@@H](O[C@H]3O[C@H](CO)[C@@H](O)[C@H](N)[C@H]3O)[C@H](N)C[C@@H]2N)[C@H](N)C[C@@H]1O` [TOBRAMYCIN]?
A: MIC (Pseudomonas aeruginosa [19]): 4100 µg/mL; MIC (Pseudomonas aeruginosa [20]): 64 µg/mL; MIC (Pseudomonas aeruginosa [21]): 128 µg/mL

Q: What does the source list for `CO[C@H]1/C=C/O[C@@]2(C)Oc3c(C)c(O)c4c(O)c(c(/C=N/N5CCN(Cc6cn(CCCCCCCCCCCCO[C@@H]7[C@@H](O[C@H]8O[C@H](CO)[C@@H](O)[C@H](N)[C@H]8O)[C@H](N)C[C@H](N)[C@H]7O[C@H]7O[C@H](CN)[C@@H](O)C[C@H]7N)nn6)CC5)c(O)c4c3C2=O)NC(=O)/C(C)=C\C=C\[C@H](C)[C@H](O)[C@@H](C)[C@@H](O)[C@@H](C)[C@H](OC(C)=O)[C@@H]1C.O=C(O)C(F)(F)F.O=C(O)C(F)(F)F.O=C(O)C(F)(F)F.O=C(O)C(F)(F)F.O=C(O)C(F)(F)F`?
A: MIC (Pseudomonas aeruginosa [22]): 2 µg/mL; fold change (FC) (Pseudomonas aeruginosa [23]): 4; MIC (Pseudomonas aeruginosa [24]): 128 µg/mL; MIC (Pseudomonas aeruginosa [25]): 0.25 µg/mL; MIC (Pseudomonas aeruginosa [26]): 512 µg/mL; fold change (FC) (Pseudomonas aeruginosa [27]): 4; MIC (Pseudomonas aeruginosa [28]): 1 µg/mL

Q: Which MIC (Pseudomonas aeruginosa [29]) does the source give for `CO[C@H]1/C=C/O[C@@]2(C)Oc3c(C)c(O)c4c(O)c(c(/C=N/N5CCN(C)CC5)c(O)c4c3C2=O)NC(=O)/C(C)=C\C=C\[C@H](C)[C@H](O)[C@@H](C)[C@@H](O)[C@@H](C)[C@H](OC(C)=O)[C@@H]1C` [RIFAMPIN] here?
A: Its MIC is 4100 µg/mL.

Q: What about the MIC (Pseudomonas aeruginosa [30]) of the same molecule?
A: Its MIC is 32 µg/mL.
